Patent publication US20220112192A1, “COMPOUNDS AND METHODS OF USE THEREOF FOR TREATMENT OF CANCER” (ARAXES PHARMA LLC, priority 2018, published 2022)

Biological target: T1, KRAS G12C 1-169, his-tagged protein, GDP-loaded (Homo sapiens, UniProt P01116, G12C)
T1 construct: KRAS G12C 1-169, his-tagged protein, GDP-loaded
Assay: Biochemical assay: covalent modification of KRAS G12C measured by mass spectrometry
Assay type: binding
Details: modification of KRAS G12C at 10 minutes
Experimental: Test compounds were prepared as 10 mM stock solutions in DMSO (Fisher cat #BP-231-100). KRAS G12C 1-169, his-tagged protein, GDP-loaded was diluted to 2 μM or 0.5 μM in buffer (20 mM Hepes, 150 mM NaCl, 1 mM MgCl2).
Compounds were tested for activity as follows: Compounds were diluted to 50× final test concentration in DMSO in 96-well storage plates. Compound stock solutions were vortexed before use and observed carefully for any sign of precipitation. Dilutions were as follow: • For 100 μM final compound concentration, compounds were diluted to 5000 μM (5 μL 10 mM compound stock+5 μL DMSO and mixed well by pipetting. • For 30 μM final compound concentration, compounds were diluted to 1500 μM (3 μL 10 mM compound stock+17 μL DMSO) and mixed well by pipetting. • For 10 μM final compound concentration, compounds were diluted to 500 μM (2 μL 10 mM compound stock+38 μL DMSO) and mixed well by pipetting. 49 μL of the stock protein solution was added to each well of a 96-well PCR plate (Fisher cat #1423027). 1 μL of the diluted 50× compounds were added to appropriate wells in the PCR plate using 12-channel pipettor. Reactions were mixed carefully and thoroughly by pipetting up/down with a 200 μL multi-channel pipettor. The plate was sealed well with aluminum plate seal, and stored in drawer at room temperature for 10 minutes, 30 minutes, 2 hours or 24 hours. 5 μL of 2% formic acid (Fisher cat #A117) in de-ionized H2O was then added to each well followed by mixing with a pipette. The plate was then resealed with aluminum seal and stored on dry ice until analyzed as described below.
The above described assays are analyzed by mass spectrometry according to one of the following two procedures:
The MS instrument was set to positive polarity, 2 GHz resolution, and low mass (1700) mode and allowed to equilibrate for 30 minutes. The instrument was then calibrated, switched to acquisition mode and the appropriate method loaded.
After another 30 minute equilibration time, a blank batch (i.e., buffer) was run to ensure equipment is operating properly. The samples are thawed at 37° C. for 10 minutes, briefly centrifuged, and transferred to the bench top. Wells A1 and H12 were spiked with 1 μL 500 μM internal standard peptide, and the plates centrifuged at 2000×g for 5 minutes. The method was then run and masses of each individual well recorded.
The masses (for which integration data is desired) for each well were pasted into the platemap and exported from the analysis. Masses for the internal standards were exported as well. The data at 50 ppm was extracted for the +19 charge state, and identity of well A1 was assigned using the internal standard spike and integrated. Peak data was exported as a TOF list and the above steps are repeated individually, for the +20, 21, 22, 23, 24, and 25 charge states.
? -Exactive Assay:
The masses and peak intensities of KRAS G12C protein species were measured using a Dionex RSLCnano system (Thermo Scientific) connected to a Q Exactive Plus mass spectrometer (Thermo Scientific). […] of sample was each loaded onto a Aeris™ […] WIDEPORE C4 200 Å, LC Column 50×2.1 mm column maintained at 40° C. at a flow rate of 600 μL/min with 20% Solvent A (0.1% formic acid in H2O) and […] (0.1% formic acid in acetonitrile). The liquid chromatography conditions were 20% solvent B for 1 minute, 20% to 60% solvent B for 1.5 minutes, 60% to 90% solvent for 0.5 minute, 90% solvent B for 0.2 minute, 90% to 20% solvent B for 0.2 minute, and then equilibrated for 1.6 minutes before the following sample injection. The flow rate was maintained at 600 μL/min throughout sample analysis.
The mass spectrometer was operated in profile mode at a resolution of 17500, 5 microscans, using 50 msec max injection time and an AGC target of 1×10^6, and a full mass range from 800-1850 m/z was recorded. The HCD trapping gas was optimized for maximum sensitivity for intact proteins. […]

Compound | Binding %
1-(6-(6-chloro-7-(5-methyl-1H-indazol-4-yl)-2-(((S)-1-methylpyrrolidin-2-yl)methoxy)-8-(2,2,2-trifluoroethoxy)quinazolin-4-yl)-2,6-diazaspiro[3.4]octan-2-yl)prop-2-en-1-one [Compound I-75] | +++ (+++ indicates binding activity greater than 85% at 10 minutes)
1-(6-(7-(5-methyl-1H-indazol-4-yl)-2-(((S)-1-methylpyrrolidin-2-yl)methoxy)-8-(2,2,2-trifluoroethoxy)-6-vinylquinazolin-4-yl)-2,6-diazaspiro[3.4]octan-2-yl)prop-2-en-1-one [Compound I-74] | ++ (++ indicates binding activity from 50 to 85% at 10 minutes)
C=CC(=O)C1CC2(CCN1c1nc(=O)n(-c3ccccc3C(C)C)c3cc(-c4c(C)ccc5[nH]ncc45)c(Cl)cc13)CNC2 (single isomer, unassigned) [II-5a, 4-(6-acryloyl-2,7-diazaspiro[3.5]nonan-7-yl)-6-chloro-1-(6-isopropylphenyl)-7-(5-methyl-1H-indazol-4-yl)quinazolin-2(1H)-one] | + (+ indicates binding activity greater than 0% and up to 50% at 10 minutes)
C=CC(=O)C1CC2(CCN1c1nc(=O)n(-c3ccccc3C(C)C)c3cc(-c4c(C)ccc5[nH]ncc45)c(Cl)cc13)CNC2 (single isomer, unassigned) [II-5b, 4-(6-acryloyl-2,7-diazaspiro[3.5]nonan-7-yl)-6-chloro-1-(6-isopropylphenyl)-7-(5-methyl-1H-indazol-4-yl)quinazolin-2(1H)-one] | ++ (++ indicates binding activity from 50 to 85% at 10 minutes)
C=CC(=O)N1CC2(CCN(c3nc(OC[C@@H]4CCCN4C)nc4c(F)c(-c5c(C)ccc6cnn(C)c56)c(Cl)cc34)C2)C1 [Compound I-1, 1-(6-(6-chloro-7-(1,6-dimethyl-1H-indazol-7-yl)-8-fluoro-2-(((S)-1-methylpyrrolidin-2-yl)methoxy)quinazolin-4-yl)-2,6-diazaspiro[3.4]octan-2-yl)prop-2-en-1-one] | ++ (++ indicates binding activity from 50 to 85% at 10 minutes)
C=CC(=O)N1CC2(CCN(c3nc(OC[C@@H]4CCCN4C)nc4c(F)c(-c5c(C)ccc6cnn(C)c56)c(Cl)cc34)CC2)C1 [Compound I-2, 1-(7-(6-chloro-7-(1,6-dimethyl-1H-indazol-7-yl)-8-fluoro-2-(((S)-1-methylpyrrolidin-2-yl)methoxy)quinazolin-4-yl)-2,7-diazaspiro[3.5]nonan-2-yl)prop-2-en-1-one] | +++ (+++ indicates binding activity greater than 85% at 10 minutes)
C=CC(=O)N1CC2(CCN(c3nc(OC[C@@H]4CCCN4C)nc4c(F)c(-c5c(C)ccc6cn[nH]c56)c(Cl)cc34)CC2)C1 [Compound I-3, 1-(7-(6-chloro-8-fluoro-7-(6-methyl-1H-indazol-7-yl)-2-(((S)-1-methylpyrrolidin-2-yl)methoxy)quinazolin-4-yl)-2,7-diazaspiro[3.5]nonan-2-yl)prop-2-en-1-one] | +++ (+++ indicates binding activity greater than 85% at 10 minutes)
C=CC(=O)N1CC2(CCN(c3nc(OC[C@@H]4CCCN4C)nc4c(F)c(-c5c(C)ccc6[nH]ncc56)c(Cl)cc34)CC2)C1 [Compound I-6, 1-(7-(6-chloro-8-fluoro-7-(5-methyl-1H-indazol-4-yl)-2-(((S)-1-methylpyrrolidin-2-yl)methoxy)quinazolin-4-yl)-2,7-diazaspiro[3.5]nonan-2-yl)prop-2-en-1-one] | +++ (+++ indicates binding activity greater than 85% at 10 minutes)
C=CC(=O)N1CC2(CCN(c3c(Cl)c(-c4c(C)ccc5[nH]ncc45)c(OCC(F)(F)F)c4nc(OC[C@@H]5CCCN5C)ncc34)C(C)C2)C1 (stereo partly drawn) [Compound I-76, 1-(7-(6-chloro-7-(5-methyl-1H-indazol-4-yl)-2-(((S)-1-methylpyrrolidin-2-yl)methoxy)-8-(2,2,2-trifluoroethoxy)quinazolin-5-yl)-6-methyl-2,7-diazaspiro[3.5]nonan-2-yl)prop-2-en-1-one] | ++ (++ indicates binding activity from 50 to 85% at 10 minutes)
